The results in this text go back to patent publication US20110033461A1, “Combination Therapy for the Treatment of Cancer” (priority 2008, published 2011).

In test [1] the test system is HCT116 cells. Description: cell cycle analysis of erlotinib-treated HCT116 cells. The test is classed as cell-based, human. The text has this:
Inhibition of Aurora kinase activity is associated with cell cycle arrest.

The test system of test [2] is HCT116 cells. The experiment in a line: viability-based synergy experiment, C1368 and erlotinib, HCT116 cells. The test is classed as cell-based, human. Particulars: for fold decrease of IC50 value, combination vs drug alone: C1368:erlotinib 1:25 ratio. The text has this: (§1) ED refers to the percentage of cell killed at different drug doses.
For another test, the system named is DLD1 cells. The experiment in a line: viability-based synergy experiment, C1368 and erlotinib, DLD1 cells. In kind it is cell-based.
Text: as §1

Test [3] deals with HCT116 cells. Description: viability-based synergy experiment, C1368 and cetuximab, HCT116 cells. In kind it is cell-based, human.

Like-named read-outs stand apart in the source and are kept apart here.

In the case of `C#Cc1cccc(Nc2ncnc3cc(OCCOC)c(OCCOC)cc23)c1` [erlotinib], the “concentration at which there was a reduction in cell number suggesting cell death” value in the test on HCT116 cells [1] is greater than 50 µM. The “induction of cell cycle arrest” value in the test on HCT116 cells [1] is given as “did not noticeably induce cell cycle arrest”. The “fold decrease of IC50 value, combination vs drug alone” value in the test on HCT116 cells [2] (HCT116 cells) was greater than 3 fold. For the same molecule, the IC50 (commonly the concentration needed to halve the response being measured) stood at 12.3 µM in the test on HCT116 cells [2] (Homo sapiens, HCT-116, read-out: IC50 value in combination); 37.3 µM in the test on HCT116 cells [2] (Homo sapiens, HCT-116, HCT116 cells, treatment with either drug alone, read-out: IC50 value, drug alone); 13.8 µM in the test on DLD1 cells (Homo sapiens, DLD-1, read-out: IC50 in combination); 71.7 µM in the test on DLD1 cells (Homo sapiens, DLD-1, DLD1 cells, single agent, read-out: IC50, single agent).

For `O=C(Nc1cccc(Nc2nccc(Nc3cccc(C(F)(F)F)c3)n2)c1)C1CC1` [C1368], the IC50 amounted to 1 µM with HCT116 cells [3] (cetuximab with C1368, 1:109 ratio, read-out: IC50 value in combination); 2.1 µM with HCT116 cells [3] (read-out: IC50 value, drug alone (cetuximab experiment), drug alone); 0.5 µM with HCT116 cells [2] (HCT116 cells, combination of C1368 and erlotinib, 1:25 ratio, read-out: IC50 value in combination); 2.3 µM in the test on HCT116 cells [2] (HCT116 cells, treatment with either drug alone, read-out: IC50 value, drug alone); 0.5 µM with DLD1 cells (DLD1 cells, combination treatment with C1368 and erlotinib, read-out: IC50 in combination); 2.7 µM in the test with DLD1 cells (DLD1 cells, single agent, read-out: IC50, single agent). Further, the “fold decrease of IC50 value, combination vs drug alone” value in the test on HCT116 cells [2] (HCT116 cells) was greater than 4 fold.
